# Source: PMC9821162 (International Journal of Molecular Sciences, 2023)
# Read-outs that look alike come from different tables or passages of the source.
# Assays:
# MET = conditions: cited from earlier work
# p-MET [1] = assay: Immunohistochemical staining (IOD) of p-MET in tumor tissue; type: in vivo, nude mice (MDA-MB-231 human breast cancer xenograft); conditions: 15 and 50 mg/kg for 18 days
# HGF mRNA [2] = assay: Real-time PCR of HGF mRNA in MDA-MB-231 xenograft tumors; type: in vivo, nude mice (MDA-MB-231 human breast cancer xenograft); set-up: dose or concentration left out as unconfirmed; conditions: tumors at 0, 3, 6, 9, 12 days
# Procedure: (§1) In vitro, MDA-MB-231 cells were prepared as described above. […] Tumors were obtained from three mice per group at 0, 3, 6, 9, and 12 days. The total RNA was extracted using an RNA isolation kit (Takara, Shiga, Japan) according to the manufacturer’s instructions. cDNA was synthesized from 2 μg of RNA using a reverse transcriptase M-MLV synthesis kit (Takara). Real-time PCR was performed using the MyiQ5 real-time PCR detection system (Bio-Rad) with SYBR Premix Ex Taq (Takara). The PCR products for human β-actin, […], and HGF were synthesized with the primer pairs FP (forward primer) 5′-[…]-3′ and RP (reverse primer) 5′-[…]-3′ (β-actin, Gene ID: 60), FP 5′-[…]-3′ and RP 5′-[…]-3′ (MET, Gene ID: 4233), as well as FP 5′-[…]-3′ and RP 5′-[…]-3′ (HGF, Gene ID: 3082). All primers were purchased from AuGCT DNA-SYN Biotechnology Co., Ltd. (Dalian, China). Samples were run in triplicate under the following conditions: an initial denaturation for 30 s at 95 °C, followed by 45 cycles of 15 s at 95 °C, 30 s at 60 °C, and 33 s at 72 °C. The levels of gene expression in each sample were normalized to β-actin mRNA.
# [3] = tested on: MDA-MB-231 xenograft tumors; assay: Tumor growth inhibition assay, MDA-MB-231 tumor xenograft model; type: in vivo, BALB/c nude mice; conditions: for tumor inhibitory rate: day 18, n = 6; for mean tumor volume: day 18, vehicle group 285.00 ± 30.82 mm^3
# Procedure: MDA-MB-231 cells (2 × 10^7) were suspended in 200 μL of PBS (pH 7.4) and were inoculated subcutaneously into the second mammary fat pads of the nude mice. The tumor diameter was measured with a vernier caliper and converted into tumor volume using the formula 1/2 × A × B^2 (A = larger diameter, B = smaller diameter). The treatment was started when the average tumor volume reached 50 mm^3.
# Xenograft mice were randomly divided into three groups, with six in each group. […] The blank control group received only the vehicle solution. The tumor size and body weight were measured every three days. After 18 days of treatment, the animals were euthanized by cervical displacement. The tumors were collected after the final treatment and frozen at −80 °C until use.
# MET mRNA [4] = assay: Real-time PCR of MET mRNA in MDA-MB-231 cells; type: cell-based, human; conditions: in vitro
# Procedure: as §1
# [5] = Pharmacokinetic study in tumor-bearing nude mice (LC-MS/MS); type: in vivo; conditions: plasma; for AUC(0-inf) / AUC(0-t) / Cmax / Tmax / half-life / MRT: nude, mouse; for MRT: read-out: MRT (mean resident time)
# Procedure: Data processing was performed with Phoenix WinNonlin 8.1.0.3530 (Pharsight Corporation, Mountain View, CA, USA).
# MET mRNA [6] = tested on: MET mRNA; set-up: species or system nude mice (MDA-MB-231 human breast cancer xenograft); conditions: in vivo
# p-MET [7] = conditions: cited from earlier work
# HGF = assay: Immunohistochemical staining (IOD) of HGF in tumor tissue; type: in vivo, nude mice (MDA-MB-231 human breast cancer xenograft); conditions: 15 and 50 mg/kg for 18 days
# Procedure: After the paraffin sections of tumors were deparaffinized, rehydrated, and washed with PBS (pH 7.4), antigen retrieval was performed by boiling the sections in 10 mmol/L sodium citrate buffer (pH 6.0) in the microwave for 4 min. The endogenous peroxidase activity was quenched by placing the slides in 3% hydrogen peroxide in methanol. The slides were then blocked with 3% BSA-PBS, followed by incubation with a 1:425 dilution of the primary antibody of p-MET and HGF (Cell Signaling Technology, Danvers, MA, USA) overnight at 4 °C. Thereafter, the detection was performed using a biotin-conjugated secondary antibody and a streptavidin-horseradish peroxidase conjugate (SA-HRP), followed by colorimetric detection using diaminobenzidine (DAB). The sections were counterstained with hematoxylin and stabilized with a mounting medium. The immunohistochemical images with integrated optical density (IOD) of positive expression, which reflected the distribution characteristics of anti-p-MET and anti-HGF positive stained area in tumor tissues, were quantitatively analyzed using Image-Pro Plus version 6.0 (Media Cybernetics, Inc., Silver Spring, MD, USA).
# HGF mRNA [8] = assay: Real-time PCR of HGF mRNA in MDA-MB-231 cells; type: cell-based, human; conditions: in vitro
# Procedure: as §1
# MDA-MB-231 cells = conditions: in vitro, cited from earlier work
smiles,measurement,setting,value
COc1cc2c(Oc3ccc(NC(=O)C4(C(=O)Nc5ccc(F)cc5)CC4)cc3F)ccnc2cc1OCCCN1CCOCC1 [Foretinib],expression of MET in MDA-MB-231,MET,remained unchanged
same,"p-MET expression in the tumor tissues (IHC staining, IOD)",p-MET [1],decreased in a dose-dependent manner
same,mRNA expression level of HGF,HGF mRNA [2],effectively suppressed
same,tumor inhibitory rate,[3]; 15 mg/kg/day intragastric,42.79 ± 8.52%
same,tumor inhibitory rate,[3]; 50 mg/kg/day intragastric,79.16 ± 4.58%
same,mean tumor volume,[3]; high dose group (50 mg/kg/day),80.67 ± 17.00 mm^3
same,mean tumor volume,[3]; low dose group (15 mg/kg/day),220.00 ± 70.14 mm^3
same,mRNA expression level of MET,MET mRNA [4],effectively suppressed
same,AUC(0-inf),[5]; single oral dose 2 mg/kg,407 ± 63.4 ng·h/mL
same,AUC(0-t),[5]; single oral dose 2 mg/kg,366 ± 76.4 ng·h/mL
same,Cmax,[5]; single oral dose 2 mg/kg,22.2 ± 11.2 ng/mL
same,Tmax,[5]; single oral dose 2 mg/kg,4 h
same,half-life,[5]; single oral dose 2 mg/kg,905 ± 149 min
same,MRT,[5]; single oral dose 2 mg/kg,20.1 ± 5.05 h
same,AUC(0-inf),[5]; single oral dose 10 mg/kg,7260 ± 108 ng·h/mL
same,AUC(0-t),[5]; single oral dose 10 mg/kg,6210 ± 423 ng·h/mL
same,Cmax,[5]; single oral dose 10 mg/kg,334 ± 107 ng/mL
same,Tmax,[5]; single oral dose 10 mg/kg,2 h
same,half-life,[5]; single oral dose 10 mg/kg,1200 ± 403 min
same,MRT,[5]; single oral dose 10 mg/kg,25.1 ± 8.36 h
same,AUC(0-inf),[5]; single oral dose 50 mg/kg,13000 ng·h/mL
same,AUC(0-t),[5]; single oral dose 50 mg/kg,12600 ng·h/mL
same,Cmax,[5]; single oral dose 50 mg/kg,1430 ± 744 ng/mL
same,Tmax,[5]; single oral dose 50 mg/kg,0.5 h
same,half-life,[5]; single oral dose 50 mg/kg,568.8 ± 2.7 min
same,MRT,[5]; single oral dose 50 mg/kg,13.3 ± 0.73 h
same,Vd (volume of distribution),[5]; single oral dose 2 mg/kg,109.72 ± 34.73 L/kg
same,k (elimination constant),[5]; single oral dose 2 mg/kg,0.046 ± 0.008 h⁻¹
same,Vd (volume of distribution),[5]; single oral dose 10 mg/kg,39.76 ± 13.95 L/kg
same,k (elimination constant),[5]; single oral dose 10 mg/kg,0.037 ± 0.012 h⁻¹
same,Vd (volume of distribution),[5]; single oral dose 50 mg/kg,60.90 ± 31.53 L/kg
same,k (elimination constant),[5]; single oral dose 50 mg/kg,0.073 ± 0.0003 h⁻¹
same,mRNA expression level of MET,MET mRNA [6],effectively suppressed
same,expression of p-MET in MDA-MB-231,p-MET [7],remarkably inhibit
same,"HGF expression in the tumor tissues (IHC staining, IOD)",HGF,decreased in a dose-dependent manner
same,mRNA expression level of HGF,HGF mRNA [8],effectively suppressed
same,apoptosis,MDA-MB-231 cells; MDA-MB-231 cells,induce marked apoptosis
same,cell cycle arrest,MDA-MB-231 cells; MDA-MB-231 cells,arrest cancer cells mainly in the G2/M phase
same,cell viability of MDA-MB-231,MDA-MB-231 cells,can decrease the cell viability
